According to BindingDB's records for patent WO2025049746 (Eikon Therapeutics, 2025):

Assays:
[1] = molecular target: Bifunctional 3'-5' exonuclease/ATP-dependent helicase WRN (Homo sapiens, UniProt Q14191); assay: ADP-Glo Kinase Assay
Protocol: ATPase activity was measured using the ADP-Glo Kinase Assay following the manufacturers recommended protocol.

[2] = molecular target: T1, Bifunctional 3'-5' exonuclease/ATP-dependent helicase WRN [480-1251] (UniProt Q14191); assay: Biochemical Activity Assays
T1 construct: 480-1251
T1 sequence (Q14191 480-1251): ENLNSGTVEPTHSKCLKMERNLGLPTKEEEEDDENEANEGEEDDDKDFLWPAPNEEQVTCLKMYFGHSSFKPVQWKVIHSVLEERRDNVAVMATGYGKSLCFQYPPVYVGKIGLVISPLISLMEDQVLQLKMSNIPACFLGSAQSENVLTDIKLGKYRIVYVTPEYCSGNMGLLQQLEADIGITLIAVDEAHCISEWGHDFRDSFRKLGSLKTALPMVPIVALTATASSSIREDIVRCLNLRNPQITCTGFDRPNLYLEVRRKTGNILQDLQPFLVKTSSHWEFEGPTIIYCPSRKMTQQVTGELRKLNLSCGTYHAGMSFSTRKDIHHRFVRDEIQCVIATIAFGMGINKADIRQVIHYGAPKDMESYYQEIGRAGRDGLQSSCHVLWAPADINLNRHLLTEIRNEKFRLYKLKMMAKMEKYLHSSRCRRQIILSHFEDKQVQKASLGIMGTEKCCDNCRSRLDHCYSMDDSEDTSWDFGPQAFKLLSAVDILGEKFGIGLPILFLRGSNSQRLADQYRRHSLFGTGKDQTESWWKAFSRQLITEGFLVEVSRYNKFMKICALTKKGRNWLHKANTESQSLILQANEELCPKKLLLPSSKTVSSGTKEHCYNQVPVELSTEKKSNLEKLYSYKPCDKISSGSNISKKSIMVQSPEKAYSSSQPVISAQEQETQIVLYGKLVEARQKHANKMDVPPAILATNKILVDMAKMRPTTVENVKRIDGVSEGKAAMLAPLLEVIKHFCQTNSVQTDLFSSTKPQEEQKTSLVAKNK

Sequence of Bifunctional 3'-5' exonuclease/ATP-dependent helicase WRN (Q14191 whole entry): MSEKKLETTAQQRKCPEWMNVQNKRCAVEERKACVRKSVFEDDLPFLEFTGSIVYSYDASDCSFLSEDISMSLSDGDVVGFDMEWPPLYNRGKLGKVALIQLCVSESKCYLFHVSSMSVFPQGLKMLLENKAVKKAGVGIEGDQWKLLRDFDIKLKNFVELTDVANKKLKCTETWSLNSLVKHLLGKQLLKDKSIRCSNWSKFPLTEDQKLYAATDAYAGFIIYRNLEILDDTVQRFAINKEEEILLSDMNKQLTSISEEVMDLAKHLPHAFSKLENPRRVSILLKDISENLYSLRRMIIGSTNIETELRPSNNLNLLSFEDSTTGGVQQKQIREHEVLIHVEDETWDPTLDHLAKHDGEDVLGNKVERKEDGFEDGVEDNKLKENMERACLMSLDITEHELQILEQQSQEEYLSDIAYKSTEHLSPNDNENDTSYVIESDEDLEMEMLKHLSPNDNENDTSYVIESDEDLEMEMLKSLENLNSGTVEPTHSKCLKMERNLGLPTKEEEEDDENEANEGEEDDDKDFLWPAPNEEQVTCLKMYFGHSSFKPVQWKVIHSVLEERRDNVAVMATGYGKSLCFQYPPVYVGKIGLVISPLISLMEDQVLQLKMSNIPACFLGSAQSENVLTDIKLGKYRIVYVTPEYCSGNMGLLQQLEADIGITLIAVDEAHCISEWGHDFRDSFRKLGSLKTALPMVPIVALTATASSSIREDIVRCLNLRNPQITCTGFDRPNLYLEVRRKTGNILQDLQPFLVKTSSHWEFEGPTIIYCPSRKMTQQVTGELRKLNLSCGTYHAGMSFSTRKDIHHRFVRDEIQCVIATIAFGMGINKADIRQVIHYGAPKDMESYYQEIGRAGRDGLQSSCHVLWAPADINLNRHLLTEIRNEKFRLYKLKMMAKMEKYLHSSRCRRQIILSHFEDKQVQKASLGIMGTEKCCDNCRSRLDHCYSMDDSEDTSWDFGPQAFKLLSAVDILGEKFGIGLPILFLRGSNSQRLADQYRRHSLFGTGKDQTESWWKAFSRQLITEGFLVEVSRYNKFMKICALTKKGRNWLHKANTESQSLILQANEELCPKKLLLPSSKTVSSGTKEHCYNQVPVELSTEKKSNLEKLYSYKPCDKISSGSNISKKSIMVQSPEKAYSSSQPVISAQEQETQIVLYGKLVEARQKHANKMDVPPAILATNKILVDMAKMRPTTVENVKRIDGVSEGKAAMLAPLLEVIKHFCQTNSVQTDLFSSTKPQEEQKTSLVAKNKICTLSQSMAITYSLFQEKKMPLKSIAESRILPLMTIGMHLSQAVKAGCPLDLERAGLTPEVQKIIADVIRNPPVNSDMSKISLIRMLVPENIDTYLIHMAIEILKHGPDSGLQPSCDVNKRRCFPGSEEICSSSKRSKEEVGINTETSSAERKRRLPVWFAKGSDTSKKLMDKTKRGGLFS

| SMILES | IC50 [1] [nM] | IC50 [2] [nM] |
| --- | --- | --- |
| CCc1c(N2CCN(C(=O)c3ncnc(C)c3O)CC2)c(=O)n2nc(-c3ccc4c(c3)C[C@H](OC)C4)nc2n1CC(=O)Nc1ccc(C(F)(F)F)cc1Cl [WO2025049746, Example 181] | 38 | 33 |
| CCc1c(N2CCN(C(=O)c3ncnc(C)c3O)CC2)c(=O)n2nc(-c3ccc4c(c3)CCO4)nc2n1CC(=O)Nc1ccc(Cl)c(OC(F)F)c1Cl [WO2025049746, Example 405] | 44 | 35 |
| CCc1c(N2CCN(C(=O)c3ncnc(C)c3O)CC2)c(=O)n2nc(-c3ccc4c(c3)nnn4C)nc2n1CC(=O)Nc1ccc(C(F)(F)F)cc1Cl [WO2025049746, Example 314] | 32 | 33 |
| CCc1c(N2CCN(C(=O)c3ncnc(C)c3O)CC2)c(=O)n2nc(-c3ccc4c(c3)ncn4C)nc2n1CC(=O)Nc1ccc(C(F)(F)F)cc1Cl [WO2025049746, Example 254] | 25 | 24 |
| CCc1c(N2CCN(C(=O)c3ncnc(C)c3O)CC2)c(=O)n2nc(-c3ccc4c(c3)NC(=O)C4)nc2n1CC(=O)Nc1ccc(C(F)(F)F)cc1Cl [WO2025049746, Example 309] | 32 | 31 |
| CCc1c(N2CCN(C(=O)c3ncnc(C)c3O)CC2)c(=O)n2nc(-c3ccc4c(c3)CCOC4(C)C)nc2n1CC(=O)Nc1ccc(C(F)(F)F)cc1Cl [WO2025049746, Example 195] | 45 | 39 |
| CCc1c(N2CCN(C(=O)c3ncnc(C)c3O)CC2)c(=O)n2nc(-c3ccc4nn(C5COC5)cc4c3)nc2n1CC(=O)Nc1ccc(C(F)(F)F)cc1Cl [WO2025049746, Example 332] | 44 | 45 |
| CCc1c(N2CCN(C(=O)c3cccc4c3NS(=O)(=O)CC4)CC2)c(=O)n2nc(-c3ccc4c(c3)COC4)nc2n1CC(=O)Nc1ccc(C(F)(F)F)cc1Cl [WO2025049746, Example 425] | 34 | 27 |
| CCc1c(N2CCN(C(=O)c3ncnc(C)c3O)CC2)c(=O)n2nc(-c3cnc4ccn(C)c4c3)nc2n1CC(=O)Nc1ccc(C(F)(F)F)cc1Cl [WO2025049746, Example 304] | 32 | 29 |
| CCc1c(N2CCN(C(=O)c3cn(C)nc3O)CC2)c(=O)n2nc(N(C)C)nc2n1CC(=O)Nc1ccc(C(F)(F)F)c2c1CC2 [WO2025049746, Example 107] | 160 | 129 |
| CCc1c(N2CCN(C(=O)c3ncnc(C)c3O)CC2)c(=O)n2nc(-c3ccc4c(c3)CCC4(F)F)nc2n1CC(=O)Nc1ccc(C(F)(F)F)cc1Cl [WO2025049746, Example 187] | 170 | 75 |
| CCc1c(N2CCN(C(=O)c3ncnc(C)c3O)CC2)c(=O)n2nc(-c3ccc4c(c3)CC(=O)N4C)nc2n1CC(=O)Nc1ccc(C(F)(F)F)cc1Cl [WO2025049746, Example 271] | 28 | 35 |
| CCc1c(N2CCN(C(=O)c3ncnc(C)c3O)CC2)c(=O)n2nc(-c3cnn4c3CCC4)nc2n1CC(=O)Nc1ccc(C(F)(F)F)cc1Cl [WO2025049746, Example 166] | 16 | 14 |
| CCc1c(-c2cc3n(n2)CC(=O)N(C)C3)c(=O)n2nc(C3=CCOCC3)nc2n1CC(=O)Nc1ccc(C(F)(F)F)cc1Cl [WO2025049746, Example 338] | 29700 | 29700 |
| CCc1c(N2CCN(C(=O)c3ccccc3NS(C)(=O)=O)CC2)c(=O)n2nc(-c3cccc4c3OCCO4)nc2n1CC(=O)Nc1ccc(C(F)(F)F)cc1Cl [WO2025049746, Example 378] | 154 | 96 |
| CCc1c(N2CCN(C(=O)c3ncnc(C)c3O)CC2)c(=O)n2nc(-c3ccc4c(c3)OCO4)nc2n1CC(=O)Nc1ccc(C(F)(F)F)cc1Cl [WO2025049746, Example 10] | 28.5 | 22.1 |
| CCc1c(N2CCN(C(=O)c3cn(C)[nH]c3=O)CC2)c(=O)n2nc(C3=CCOCC3)nc2n1CC(=O)Nc1ccc(C(F)(F)F)cc1Cl [WO2025049746, Example 33] | 31 | 25.8 |
| CCc1c(N2CCN(C(=O)c3ncnc(C)c3O)CC2)c(=O)n2nc(-c3ccn4ncc(C)c4c3)nc2n1CC(=O)Nc1ccc(C(F)(F)F)cc1Cl [WO2025049746, Example 272] | 27 | 28 |
| CCc1c(N2CCN(C(=O)c3ncnc(C)c3O)[C@H](C)C2)c(=O)n2nc(-c3ccc4c(c3)COC4(C)C)nc2n1CC(=O)Nc1ccc(C(F)(F)F)cc1Cl [WO2025049746, Example 457] | 39 | 40 |
| CCc1c(N2CCN(C(=O)Cn3cncn3)CC2)c(=O)n2nc(C3=CCOCC3)nc2n1CC(=O)Nc1ccc(C(F)(F)F)cc1Cl [WO2025049746, Example 61] | 125 | 66.7 |
| CCc1c(N2CCN(C(=O)c3ncnc(C)c3O)CC2)c(=O)n2nc(-c3ccc4c(c3)COC43CCOCC3)nc2n1CC(=O)Nc1ccc(C(F)(F)F)cc1Cl [WO2025049746, Example 289] | 53 | 56 |
| CCc1c(N2CCN(C(=O)c3ncnc(C)c3O)CC2)c(=O)n2nc(-c3ccc4ncccc4c3)nc2n1CC(=O)Nc1ccc(C(F)(F)F)cc1Cl [WO2025049746, Example 264] | 23 | 24 |

| SMILES | IC50 [1] [nM] | IC50 [2] [nM] |
| --- | --- | --- |
| CCc1c(N2CCN(C(=O)c3ncnc(C)c3O)CC2)c(=O)n2nc(C3=CCOCC3)nc2n1CC(=O)Nc1ccc(OC(F)F)cc1F [WO2025049746, Example 369] | 85 | 77 |
| CCc1c(N2CCN(C(=O)c3ncnc(C)c3O)CC2)c(=O)n2nc(-c3ccn4nccc4c3C)nc2n1CC(=O)Nc1ccc(C(F)(F)F)cc1Cl [WO2025049746, Example 239] | 21 | 22 |
| CCc1c(N2CCN(C(=O)c3nc4n(c(=O)c3O)CCOC4)CC2)c(=O)n2nc(-c3ccc4c(c3)COC4(C)C)nc2n1CC(=O)Nc1ccc(C(F)(F)F)cc1Cl [WO2025049746, Example 462] | 35.4 | 39.4 |
| CCc1c(N2CCN(C(=O)c3ccccc3NS(=O)(=O)C3CC3)CC2)c(=O)n2nc(N(C)C)nc2n1CC(=O)Nc1ccc(C(F)(F)F)cc1Cl [WO2025049746, Example 85] | 35.1 | 28.2 |
| CCc1c(N2CCN(C(=O)c3ncnc(C)c3O)CC2)c(=O)n2nc(-c3ccn4c(cc(=O)n4C(F)F)c3F)nc2n1CC(=O)Nc1ccc(C(F)(F)F)cc1Cl [WO2025049746, Example 335] | 64 | 58 |
| CCc1c(N2CCN(C(=O)c3ncnc(C)c3O)CC2)c(=O)n2nc(-c3ccc4c(c3)CO[C@@H]4C(F)(F)F)nc2n1CC(=O)Nc1ccc(C(F)(F)F)cc1Cl [WO2025049746, Example 276] | 72 | 85 |
| CCc1c(N2CCN(C(=O)c3ncnc(C)c3O)CC2)c(=O)n2nc(-c3ccc4nn(C)c(F)c4c3)nc2n1CC(=O)Nc1ccc(C(F)(F)F)cc1Cl [WO2025049746, Example 290] | 29 | 31 |
| CCc1c(N2CCN(C(=O)c3ncnc(C)c3O)CC2)c(=O)n2nc(-c3ccc4c(c3)OCC4)nc2n1CC(=O)Nc1c(Cl)cc(C(F)(F)F)c2c1CC2 [WO2025049746, Example 381] | 55 | 40 |
| CCc1c(N2CCN(C(=O)c3c(C#N)cnc(C)c3O)CC2)c(=O)n2nc(-c3ccc4c(c3)COC4)nc2n1CC(=O)Nc1ccc(C(F)(F)F)cc1Cl [WO2025049746, Example 449] | 40 | 45 |
| CCc1c(N2CCN(C(=O)c3ncnc(C)c3O)CC2)c(=O)n2nc(N3CCC3)nc2n1CC(=O)Nc1c(Cl)cc(C(F)(F)F)c2c1CC2 [WO2025049746, Example 391] | 93 | 82 |
| CCc1c(N2CCN(C(=O)c3ncnc(C)c3O)CC2)c(=O)n2nc(-c3ccc([S+](C)[O-])cc3)nc2n1CC(=O)Nc1ccc(C(F)(F)F)cc1Cl (stereo unspecified) [WO2025049746, Example 333] | 28 | 28 |
| CCc1c(N2CCN(C(=O)c3ncnc(C)c3O)CC2)c(=O)n2nc(-c3cccc4oc(C)nc34)nc2n1CC(=O)Nc1ccc(C(F)(F)F)cc1Cl [WO2025049746, Example 155] | 89 | 35 |
| CCc1c(N2CCN(C(=O)c3ccccc3NS(=O)(=O)C3CC3)CC2)c(=O)n2nc(-c3ccc4c(c3)CCOC4)nc2n1CC(=O)Nc1ccc(C(F)(F)F)c2c1CC2 [WO2025049746, Example 110] | 467 | 372 |
| CCc1c(N2CCN(C(=O)c3ncnc(C)c3O)CC2)c(=O)n2nc(-c3ccc4nccnc4c3)nc2n1CC(=O)Nc1ccc(C(F)(F)F)cc1Cl [WO2025049746, Example 280] | 28 | 31 |
| CCc1c(N2CCN(C(=O)c3ncnc(C)c3O)CC2)c(=O)n2nc(-c3cnc4c(c3)CCO4)nc2n1CC(=O)Nc1ccc(C(F)(F)F)cc1Cl [WO2025049746, Example 157] | 51 | 37 |
| CCc1c(N2CCN(C(=O)c3ncnc(C)c3O)CC2)c(=O)n2nc(-c3ccc4nc(NCC(F)F)oc4c3)nc2n1CC(=O)Nc1ccc(C(F)(F)F)cc1Cl [WO2025049746, Example 303] | 42 | 45 |
| CCC1=C(N2CCN(C(=O)C3=C4NN=CC4CC=N3)CC2)C(=O)N2N=C(C3CCOCC3)NC2N1CC(=O)Nc1ccc(C(F)(F)F)cc1Cl (stereo unspecified) [WO2025049746, Example 41] | 83.9 | 56.9 |
| CCc1c(N2CCN(C(=O)c3ncnc(C)c3O)CC2)c(=O)n2nc(-c3cc(F)c4c(c3)CCO4)nc2n1CC(=O)Nc1ccc(C(F)(F)F)cc1Cl [WO2025049746, Example 173] | 36 | 28 |
| CCc1c(N2CCN(C(=O)c3ncnc(C)c3O)CC2)c(=O)n2nc(-c3ccc4c(c3)CO[C@@H]4C)nc2n1CC(=O)Nc1ccc(C(F)(F)F)cc1Cl [WO2025049746, Example 191] | 53 | 44 |
| CCc1c(N2CCN(C(=O)c3ncnc(C)c3O)CC2)c(=O)n2nc(C3=CCOCC3)nc2n1CC(=O)NC1CC2(C1)CC(F)(F)C2 [WO2025049746, Example 357] | 4820 | 5200 |
| CCc1c(N2CCN(C(=O)c3ncnc(C)c3O)CC2)c(=O)n2nc(-c3ccc4c(c3)CC(C)(C)N4C)nc2n1CC(=O)Nc1ccc(C(F)(F)F)cc1Cl [WO2025049746, Example 316] | 57 | 68 |
